Laboratory results: patent US20230364096A1, “USE OF A COMBINATION COMPRISING A BTK INHIBITOR FOR TREATING CANCERS” (BEIGENE SWITZERLAND GMBH, priority 2016, published 2023)

Columns and labels:
REC-1 MCL xenograft = test: Human REC-1 MCL xenograft model; format: in vivo, mice; details: for tumor growth / anti-tumor effect (in words): Compound 1 7.5 mg/kg BID, Ibrutinib 25 mg/kg BID, rituximab 200 µg/dose i.p. Q4D; for Tumor growth inhibition (TGI): Compound 1 7.5 mg/kg p.o. BID, Ibrutinib 25 mg/kg p.o. BID
Experimental: (§1) REC-1 cells were cultured in RPMI1640 complete medium supplemented with 10% (v/v) fetal bovine serum, and 100 µg/mL of penicillin and streptomycin. On the day of implantation, culture medium was replaced with fresh medium. Four hours later, media was removed and cells were collected as described above. Cells were re-suspended in cold (4° C.) PBS and same volume of matrigel was added to give a final concentration of 5×10^7 cells/mL for REC-1. Re-suspended cells were placed on ice prior to inoculation. The right flank region of each mouse was cleaned with 75% ethanol prior to cell inoculation. Animals were then injected subcutaneously with 1×10^7 REC-1 cells in 200 µl of cell suspension in the right front flank via a 26-gauge needle.
On day 9 after inoculation, animals were randomly divided into 6 groups with 7 mice per group. […] After implantation, primary tumor volume was measured in two dimensions using a calliper.
Individual body weight was recorded twice weekly, with mice being monitored daily for clinical signs of toxicity for the duration of the study. Mice were euthanized using carbon dioxide when their tumor volume reached 2,500 mm^3 after twice measurements, the tumor was ulcerated, or body weight loss exceeded 20%.
(§2) Tumor volume was calculated using the formula: V = 0.5 × (a × b^2) where a and b are the long and short diameters of the tumor, respectively. Tumor growth inhibition (TGI) was calculated using the following formula:
(§3) • treated t = treated tumor volume at time t • placebo t = placebo tumor volume at time t

[1] = system: REC-1/NK92MI MCL xenograft; test: Human REC-1/NK92MI mantle cell lymphoma xenograft model; format: in vivo, NOD/SCID mice; details: Compound 1 2.5 mg/kg p.o. BID, obinutuzumab 2 mg/kg i.p. QW
Experimental: REC-1 cells were cultured in RPMI1640 complete medium supplemented with 10% (v/v) fetal bovine serum, and 100 µg/mL of penicillin and streptomycin. NK92MI/CD16V cell line, overexpressing CD16 and FcRγ chain, was established from parental cell line NK92MI. The cells were maintained in MEM alpha supplemented with 0.2 mM inositol; 0.1 mM 2-mercaptoethanol; 0.02 mM folic acid; 1×NEAA; adjust to a final concentration of 20% (v/v) fetal bovine serum and 100 µg/mL of penicillin and streptomycin. […]
(§4) On day 3 after inoculation, animals were randomly divided into four groups with 12 mice per group. […] Treatments were administered in a volume of 10 mL/kg body weight, assessed immediately before dosing and the volume dosed was adjusted accordingly. […] After implantation, primary tumor volume was measured in two dimensions using a calliper.
(§5) Individual body weight was recorded twice weekly, with mice being monitored daily for clinical signs of toxicity for the duration of the study. […]
Tumor volume was calculated using the formula: V = 0.5 × (a × b^2) where a and b are the long and short diameters of the tumor, respectively. Tumor growth inhibition (TGI) was calculated using the following formula: […]

[2] = system: A431 epidermoid carcinoma allogeneic model (A431 cells and human PBMCs); test: Human A431 epidermoid carcinoma allogeneic model (Compound 1 and Mab 1); format: in vivo, NOD/SCID mice; details: Compound 1 15 mg/kg p.o. BID; Mab 1 10 mg/kg i.p. QW
Experimental: (§6) On the day of implantation, human peripheral blood mononuclear cells (PBMCs) were isolated from 150 mL blood donated by a healthy volunteer. Briefly, peripheral blood was collected into vacuum blood collection tubes containing sodium heparin. PBMCs were separated by density gradient centrifugation using Histopaque-1077 and washed one time by Dulbecco’s Phosphate Buffered Saline (DPBS). The cell pellet was suspended with DPBS at appropriate volume to give a final concentration of 1×10^8 cells/mL and placed on ice prior to inoculation.
(§7) A431 cells were cultured in DMEM complete medium supplemented with 10% (v/v) fetal bovine serum, and 100 µg/mL of penicillin and streptomycin. On the day of implantation, culture medium was replaced with fresh medium. […]
as §4, with “Starting from” for “On”, “0” for “3”, “after cell” for “after”, “10-11” for “12”
as §5
(§8) Tumor volume was calculated using the formula: V = 0.5 × (a × b^2) where a and b are the long and short diameters of the tumor, respectively.

TMD-8 DLBCL xenograft = test: Human TMD-8 DLBCL xenograft model; format: in vivo, mice; details: for Tumor growth inhibition (TGI): day 46, Compound 1 7.5 mg/kg p.o. BID, obinutuzumab 10 mg/kg i.p. QW
Experimental: as §1, with “TMD-8 DLBCL cells” for “REC-1 cells”, “for TMD-8 cells.” for “for REC-1.”, “1×10^7 TMD-8” for “1×10^7 REC-1”
On day 7 after inoculation, animals were randomly divided into 4 groups with 10 mice per group. […] Treatments were administered in a volume of 10 mL/kg body weight, assessed immediately before dosing and the volume dosed was adjusted accordingly. Compound 1 was administered by oral gavage (p.o.) twice daily (BID) and obinutuzumab was administered by intraperitoneal (i.p.) injection once every week (QW). After implantation, primary tumor volume was measured in two dimensions using a calliper.
Mice were euthanized using carbon dioxide when their tumor volume reached 2,500 mm^3 after twice measurements, the tumor was ulcerated, or body weight loss exceeded 20%.
as §2, §3

[3] = system: obinutuzumab-induced ADCC (IFN-γ secretion); test: Obinutuzumab-induced ADCC assessed by IFN-γ secretion in co-culture of NK92MI cells and Mino cells; format: cell-based, human; details: various concentrations
Experimental: Mino cells were cultured in RPMI1640 complete medium supplemented with 10% (v/v) fetal bovine serum, and 100 µg/mLof penicillin and streptomycin. NK92MI/CD16V cell line, overexpressing CD16 and FcRγ chain, was established from parental cell line NK92MI. The cells were maintained in MEM alpha supplemented with 0.2 mM inositol; 0.1 mM 2-mercaptoethanol; 0.02 mM folic acid; 1 ×NEAA; adjust to a final concentration of 20% (v/v) fetal bovine serum and 100 µg/mL of penicillin and streptomycin.
0130] Mino cells (2×10^4cells/well) as the target cells (T) were plated into 96-well plate in triplicates. Cells were treated with vehicle or various concentrations of BTK inhibitors for one hour, followed by co-seeding with NK92MI cells (4×10^4cells/well, as the effector cells (E)) and co-treatment with vehicle or obinutuzumab (2 ug/well) for additional 24 hrs. After incubation, the cell-free supernatants of each well were collected, and the levels of human IFN-γ were measured using Human IFN-γ ELISA Ready-SET-Go kit.

[4] = system: A431 epidermoid carcinoma allogeneic model (A431 cells and human PBMCs); test: Human A431 epidermoid carcinoma allogeneic model (Compound 1 and pembrolizumab); format: in vivo, NOD/SCID mice; details: Compound 1 15 mg/kg p.o. BID; pembrolizumab 10 mg/kg i.p. QW
Experimental: as §6, with “5× 10^7” for “1×10^8”
as §7
as §4, with “Starting from” for “On”, “0” for “3”, “after cell” for “after”, “10-11” for “12”
as §5, §8

[5] = number of mice, 10 mice per group, Compound 1 7.5 mg/kg, obinutuzumab 10 mg/kg

Row | Compound | tumor growth / anti-tumor effect (in words) (REC-1 MCL xenograft) | Tumor growth inhibition (TGI) (REC-1 MCL xenograft) [%] | Tumor growth inhibition (TGI) (TMD-8 DLBCL xenograft) [%] | Objective responses: total (CR+PR) (TMD-8 DLBCL xenograft; [5]) | anti-tumor effect on tumor volume (in words) [4] | further results
1 | rituximab: anti-CD20 mAb [reference compound] | tumor growth was retarded | – | – | – | – | –
2 | C=CC(=O)N1CCC[C@@H](n2nc(-c3ccc(Oc4ccccc4)cc3)c3c(N)ncnc32)C1 [Ibrutinib, reference compound] | – | 83 | – | – | – | –
3 | C=CC(=O)N1CCC([C@@H]2CCNc3c(C(N)=O)c(-c4ccc(Oc5ccccc5)cc4)nn32)CC1 [Compound 1, (S)-7-(1-acryloylpiperidin-4-yl)-2-(4-phenoxyphenyl)-4,5,6,7-tetra-hydropyrazolo[1,5-a]pyrimidine-3-carboxamide] | tumor growth was retarded | 85 | 81 | 5 | Neither Compound 1 nor pembrolizumab showed anti-tumor effect | Tumor growth inhibition (TGI) ([1]; day 23): 72%; anti-tumor effect on tumor volume (in words) [2]: no anti-tumor effect; Objective responses: CR (TMD-8 DLBCL xenograft; [5]): 1; inhibition of IFN-γ secretion (in words) [3]: much less effective
4 | pembrolizumab: humanized monoclonal IgG4 antibody against PD-1 [reference compound] | – | – | – | – | Neither Compound 1 nor pembrolizumab showed anti-tumor effect | –
5 | obinutuzumab: anti-CD20 mAb (Gazyva®) [reference compound] | – | – | 61 | 2 | – | anti-tumor effect (in words) [1]: no anti-tumor effect; Objective responses: PR (TMD-8 DLBCL xenograft; [5]): 2
